From patent US7892755B2, “Screening method” (Takeda Pharmaceutical Company Limited, priority 2004, dated 2011)

Key:
[1] = target: GPR35 (Homo sapiens, UniProt Q9HC97, S294R); assay: Suppression of forskolin-increased intracellular cAMP levels in human GPR35-expressed CHO cell line; format: cell-based; set-up: The resulting fragment (ca. 1 kb) was introduced into vector pAKKO-111; expressed in transfected cells; conditions: 2 μM forskolin, 37° C., 30 minutes (FIG. 3)
Experimental: The human GPR35-expressed CHO cells obtained in REFERENCE EXAMPLE 1 were washed with an assay buffer (HBSS (Gibco/BRL) supplemented with 0.1% bovine serum albumin and 0.2 mM isobutylmethylxanthine), followed by incubation at 37° C. for 30 minutes under conditions of 5% CO2. DNQX and NBQX were diluted with the assay buffer and the dilutions were added to the cells at respective concentrations. Thereafter forskolin was added to become 2 μM. Incubation was performed at 37° C. for 30 minutes under conditions of 5% CO2. The culture supernatant was discarded and the intracellular cAMP level was assayed on a plate reader (EnVision, Perkin Elmer) in accordance with the protocol of cAMP Screen Kit (Applied Biosystems).

[2] = test system: GPR35-GFP fusion protein; assay: Internalization of GPR35-GFP fusion protein expressed on CHO cells (Cellomics ArrayScan, MemCyto Above Threshold); format: cell-based, human; conditions: CHO cells stably expressing GPR35-GFP; 3 μM, 10 μM and 30 μM
Experimental: The CHO cell line, in which a protein wherein GFP was fused to the C-terminus of human GPR35 was stably expressed, was established using an expression plasmid for animal cells by publicly known methods. In assaying internalization of the protein, the cells at growth phase were plated at the concentration of 40000 cells/well on a 96-well plate (Packard, View-Plate™-96, Black), and cultured overnight at 37° C. under 5% CO2. First, the cells in the well were washed with assay buffer (HBSS (Gibco/BRL) supplemented with 0.1% bovine serum albumin (BSA)). Then, 100 μl each of the assay buffers containing 3 μM, 10 μM and 30 μM DNQX and NBQX was added to each well, followed by incubation at 37° C. under conditions of 5% CO2. Subsequently, 100 μl/well of a cell fixation solution (4% paraformaldehyde-containing PBS (free of Ca/Mg)) was added to the well, which was allowed to stand at room temperature for 30 minutes. The cell fixation solution was removed. […] The intracellular localization of GPR35-GFP fusion protein was assessed using MemCyto Above Threshold (cell ratio (unit %) over a specific parameter (MemCyto Intensity Ratio) representing the ratio of membrane/cytoplasmic localization of the protein to all cells in the well), which is one of the parameters of the GPCR Signaling Assay Protocol attached to the above system.

[3] = target: T1, human TGR23 (Homo sapiens, UniProt Q6W5P4); assay: MAPK phosphorylation in control cells (human TGR23-expressed CHO cells); format: cell-based
T1 construct: expressed in transfected cells; host or cells: CHO cells
T1 sequence (Q6W5P4 1-371): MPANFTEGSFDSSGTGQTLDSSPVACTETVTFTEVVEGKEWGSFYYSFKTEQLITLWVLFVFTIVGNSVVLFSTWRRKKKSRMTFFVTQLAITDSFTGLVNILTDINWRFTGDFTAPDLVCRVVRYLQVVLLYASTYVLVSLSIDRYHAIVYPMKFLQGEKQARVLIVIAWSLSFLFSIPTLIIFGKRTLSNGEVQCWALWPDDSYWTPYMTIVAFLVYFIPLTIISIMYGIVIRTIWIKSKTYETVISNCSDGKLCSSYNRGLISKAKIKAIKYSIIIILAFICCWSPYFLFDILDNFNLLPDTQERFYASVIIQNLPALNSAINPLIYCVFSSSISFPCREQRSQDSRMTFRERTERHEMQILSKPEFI

GPR35, sequence (Q9HC97 whole entry S294R, the tested form may be a part): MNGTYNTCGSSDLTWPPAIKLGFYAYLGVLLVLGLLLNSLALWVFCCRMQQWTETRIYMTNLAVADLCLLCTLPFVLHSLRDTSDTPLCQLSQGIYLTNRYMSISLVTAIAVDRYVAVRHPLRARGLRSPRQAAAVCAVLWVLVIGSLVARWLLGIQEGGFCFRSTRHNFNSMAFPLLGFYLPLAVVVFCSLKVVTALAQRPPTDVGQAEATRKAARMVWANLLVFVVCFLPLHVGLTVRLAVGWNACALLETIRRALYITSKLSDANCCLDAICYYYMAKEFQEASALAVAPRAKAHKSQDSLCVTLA

Row | SMILES | decrease of intracellular cAMP levels increased by forskolin addition [1] | activity of inducing internalization of the GPR35-GFP protein (decreased MemCyto Above Threshold value) [2] | level of phosphorylated MAP-kinase in control cells [3]
1 | O=C1N=c2cc([N+](=O)[O-])c([N+](=O)[O-])cc2=NC1=O [DNQX, 6,7-dinitroquinoxaline-2,3-dione] | dose-dependent and specific decrease | dose-dependent internalization | any enhanced level of phosphorylation was not observed
2 | NS(=O)(=O)c1cccc2c3c(cc([N+](=O)[O-])c12)=NC(=O)C(=O)N=3 [NBQX, 6-nitro-7-sulfamoylbenzo[f]quinoxaline-2,3-dione] | dose-dependent and specific decrease | dose-dependent internalization | any enhanced level of phosphorylation was not observed
